Assay results reported in patent publication EP4711368A1 (priority 2023, dated 2024).
Like-named read-outs stand apart in the source and are kept apart here.

Columns and labels:
[1] = test system: SD rats; assay: animal or person; type: in vivo; details: iv; for minimal effective dose: Rattus norvegicus; for Onset time / Righting feflex duration / Sedation Duration / Minimal effective anesthetic dose: rat, in vivo
[2] = test system: SD rats; details: rat, in vivo; for MLD: iv; for Onset time: test concentration or dose not given here; for Righting feflex duration: test concentration or dose not given here; for Sedation Duration: test concentration or dose not given here
[3] = read-out: Minimal effective anesthetic dose
[4] = read-out: Minimal effective analgesic dose

Row | SMILES | minimal effective dose [1, 3] | Onset time [1] | Righting feflex duration [1] | Sedation Duration [1] | TI ([2]; SD) | MLD ([2]; SD) | minimal effective dose [1, 4] | Minimal effective anesthetic dose [1] | TI [2] | MLD [2]
1 | CN1C(=O)N(COC(=O)CCl)N=C(c2ccccn2)c2cc(Br)ccc21 [Compound 288] | 15 mg/kg | 0.80 min | 2.45 min | 33.18 min | 1.3 | 20 mg/kg |  |  |  | 
2 | COc1nonc1CCN1N=C(c2ccccn2)c2cc(Br)ccc2N(C)C1=O [Compound 273] | 10 mg/kg | 0.25 to 0.27 min | 2.38 to 9.68 min | 43.97 to 44.82 min | >2 | >20 mg/kg |  |  |  | 
3 | C#C[C@H](C)OC(=O)CN1N=C(c2ccccn2)c2cc(Br)ccc2N(C)C1=O [Compound 252] | 20 mg/kg | 0.43 min | 2.92 to 5.05 min | 9.95 to 10.58 min | 2 | 40 mg/kg | 30 mg/kg |  |  | 
4 | CC(C)OC(=O)CN1N=C(c2ccccn2)c2cc(Br)ccc2N(C(C)C)C1=O [Compound 257] | 10 mg/kg | 0.77 to 1.48 min | 5.85 to 20.40 min | 33.47 to 64.03 min | 4 | 40 mg/kg | 10 mg/kg |  |  | 
5 | CCC(=O)OCCC1N=C(c2ccccn2)c2cc(Br)ccc2-n2c(C)cnc21 (stereo not drawn) [Compound 147] |  | 0.2 to 0.5 min |  | 27.0 to 48.7 min |  |  |  | 2.5 mg/kg | 6.0 | 15 mg/kg
6 | C=CC(C)(C)OC(=O)CCC1N=C(c2ccccn2)c2cc(Br)ccc2N(C)C1=O (stereo not drawn) [Compound 19] |  | 0.4 to 1.0 min | 1.2 to 5.5 min | 9.7 to 14.8 min |  |  |  | 1.0 mg/kg | >1.9 | >1.9 mg/kg
7 | C=CC(C)(C)OC(=O)CCC1N=C(c2cccc[n+]2[O-])c2cc(Br)ccc2N(C)C1=O (stereo not drawn) [Compound 20] |  | 0.3 to 0.5 min | 4.1 to 6.4 min | 17.0 to 20.3 min |  |  |  | 15.0 mg/kg | >1.5 | >22.5 mg/kg
8 | CCn1nnnc1CCN1N=C(c2ccccn2)c2cc(Br)ccc2N(C)C1=O [Compound 264] | 5 mg/kg | 0.43 min | 1.77 min | 8.93 min | 2 | 10 mg/kg |  |  |  | 
9 | CC[C@@H](C)OC(=O)CN1N=C(c2ccccn2)c2cc(Br)ccc2-n2c(C)cnc21 [Compound 309] | 2.5 mg/kg | 0.35 to 0.55 min | 2.38 to 18.82 min | 27.68 to 46.83 min | 6 | 15 mg/kg | 12.5 mg/kg |  |  | 
10 | CCOC(=O)CN1N=C(c2ccccn2)C(Cl)=CN(C)C1=O [Compound 348] | 20 mg/kg | 0.75 min | 2.03 min | 116.72 min | >1 | >20 mg/kg |  |  |  | 
11 | CN1C(=O)C(CCC(=O)OC2COC2)N=C(c2ccccn2)c2cc(Br)ccc21 (stereo not drawn) [Compound 16] |  | 0.2 to 0.5 min | 0.6 to 1.7 min | 3.2 to 5.3 min |  |  |  | 5.0 mg/kg | >4.5 | >22.5 mg/kg
12 | C=CC(C)OC(=O)CN1N=C(c2ccccn2)c2cc(Br)ccc2-n2c(C)cnc21 (stereo not drawn) [Compound 310] | 10 mg/kg | 0.15 to 0.52 min | 2.97 to 38.32 min | 138.40 to 240 min | 4 | 40 mg/kg | 20 mg/kg |  |  | 
